Here are results for ten molecules from patent US11255843B2, “Compositions and methods for identifying metabolically active agents” (Northwestern University, priority 2016, dated 2022).

Experiment [1] concerns PdxCreER;Bmal1flx/flx islets. The experiment is described as follows: Static insulin secretion assay in islets isolated from tamoxifen-treated PdxCreER;Bmal1flx/flx mice (ELISA). Conditions: islets from tamoxifen-treated mutant vs control mice, stimulated 1 hour; 1 mM carbachol, 10 μM PMA, 10 μM ionomycin, 2.5 μM forskolin, 1 mM 8-Br-cAMP. In kind it is cell-based, mouse. The procedure: Mouse pancreatic islets were isolated via bile duct collagenase digestion (Collagenase P, Sigma) and Ficoll gradient separation and left to recover overnight (16 hours) at 37° C. in RPMI 1640 with 10% fetal bovine serum (FBS), 1% 1-glutamine, and 1% penicillin/streptomycin. For standard insulin release assays, five islets were statically incubated in Krebs-Ringer buffer (KRB) and stimulated for 1 hour at 37° C. with various glucose concentrations, 30 mM KCl, 2.5 μM forskolin, 1 mM 8-Br-cAMP, 10 mM 1-leucine+2 mM 1-glutamine, 1 mM carbachol, 10 μM PMA, or 10 μM ionomycin. Supernatant was collected and assayed for insulin content by enzyme-linked immunosorbent assay (ELISA; Crystal Chem Inc.). Islets were then sonicated in acid-ethanol solution and solubilized overnight at 4° C. before assaying total insulin content by ELISA. For rhythmic insulin release assays, islets were first synchronized with 10 μM forskolin (Sigma) for 1 hour and allowed to recover for 16 hours. Insulin secretion assays were then performed as above in individual groups of five islets every 4 hours for 72 hours (FIG. 5A). Human islets (obtained from IIDP) were cultured in RPMI 1640 with 10% human AB serum, 1% 1-glutamine, and 1% penicillin/streptomycin (see table in FIG. S4A for details of sex, age, BMI, and IIDP ID numbers of the three donors). For the rhythmic analysis of RNAs in murine and human islets, RNA was isolated (described below) in groups of 200 islets every 4 hours for 48 or 24 hours, respectively, starting 40 hours after forskolin synchronization (FIG. 5A).
For in vivo delivery of tamoxifen (Sigma, dissolved in corn oil), mice received three intraperitoneal (i.p.) injections of 200 μg tamoxifen/g body weight, administered every other day. Subsequent experiments were conducted 10 to 14 days after tamoxifen treatment. For in vitro administration of tamoxifen, isolated islets were incubated for 24 hours with […] tamoxifen (dissolved in ethanol) prior to transfer to complete media for 24 hours to recover. Islets were then synchronized with forskolin prior to insulin secretion assays as described above.
On the technique in general: An ELISA detects its analyte on a solid surface through an enzyme-linked reagent.

For experiment [2], the system named is myotubes and MEFs. The experiment is described as follows: Core clock gene expression after chemical hypoxia mimetic (qPCR). In kind it is cell-based, mouse. Conditions: hypoxia induced with chemical mimetic CoCl2. The procedure:
Total RNA was extracted from C2C12 and MEF cell pellets and snap-frozen mouse skeletal muscle tissue using Tri-Reagent (Molecular Research Center, Inc). For muscle tissue samples, tissue was homogenized using a TissueLyser II apparatus (Qiagen). cDNA was synthesized using the High Capacity cDNA Reverse Transcription kit (Applied Biosystems). Real-time PCR was performed and analyzed using a CFX384 (Biorad). PCR conditions were: 10 min at 95° C., then 35 cycles of 10 s at 95° C., 15 s at 60° C. Relative expression levels (normalized to 18S rRNA (C2C12 and MEF) or β-actin (skeletal muscle)) were determined using the comparative CT method.

Experiment [3] relates to C2C12 myotubes. Conditions: 62.5 uM DMOG; DMSO-treated controls 22 hrs, p<0.05.
Description: For PERIOD2:LUCIFERASE (PER2:LUC) reporter assays, C2C12 myoblast cells were first infected with PER2:LUC-expressing lentivirus (gift of A. Liu, University of Memphis) (18454201) and maintained in DMEM that included 10% FBS and 2.5 μg/ml blastocidin to select for stable Per2-luc integration. Myoblasts were then differentiated for 5 days with 2% horse serum, and then synchronized in 50% horse serum for 2 hours.
Experiment [4] concerns Bmal1−/− Beta TC-6 cells. The experiment is described as follows: High throughput insulin-NanoLuc screen for drugs that restore glucose-stimulated insulin secretion. In kind it is cell-based, mouse. Conditions: 10 uM compound + 20 mM glucose, 1 hr. How it is done: A high throughput screen was used to identify small molecule drugs capable of restoring glucose-stimulated insulin secretion in clock-deficient beta cells. Bmal1^−/− beta cells and primary islets display reduced glucose-stimulated insulin secretion (GSIS) and that agonists of Gq-coupled muscarinic receptor and diacyl glycerol (DAG) signaling rescue secretion to that of wild type cells. Compounds to augment GSIS in Bmal1^−/− cells were identified by adding compounds in combination with 20 mM glucose and using the DAG mimetic Phorbol 12-myristate 13-acetate (PMA), which rescues GSIS in these cells, as a positive control. The spectrum collection small molecule compound library (MicroSource Discovery Systems, Inc) consisting of 2700 known drugs and drug-like molecules was screened for compounds that augment insulin secretion in Bmal1^−/− Beta TC-6 cells. Insulin Nanoluc expressing Bmal1^−/− Beta TC-6 cells (30,000 cells/well) were plated in 384 well plates and cultured for 4 days at 37° C. with 5% CO2. Prior to the assay, cells were washed once with KRB buffer containing 0 mM glucose and starved in glucose-free KRB buffer for 1 hour. After aspirating, KRB buffer containing 20 mM glucose in addition to small molecules (10 uM) were added, and the cells were incubated for 1 hour. As a negative control, 16 wells received only 20 mM glucose, which fails to elicit insulin secretion in Bmal1^−/− cells, and an additional 16 wells received KRB buffer containing 20 mM glucose and 10 μM PMA, which is known to induce insulin secretion in Bmal1^−/− mouse islets and Beta TC-6 cells. After 1 hour, the supernatant was collected and centrifuged at 500G for 30 min. The supernatant was transferred into a fresh 384-well assay plate containing Nano-Glo Luciferase Assay Substrate (Promega) and luciferase intensity was measured by EnSpire Plate Reader (PerkinElmer) Intensity was measured within 30 minutes.
Z scores for luciferase intensities produced by screened compounds were calculated from the following formula: z=(X−μ)/σ where z is the z-score, X is intensity of compounds, μ is the intensity of negative control (20 mM glucose), and σ is the standard deviation of negative control. Hit compounds were defined as those that elicited a response of more than 3 standard deviations from the mean (Z score>3). Hit Compounds
The Spectrum Collection small molecule compound library (MicroSource Discovery Systems, Inc), which consists of 2700 known drugs and drug-like molecules, was screened for compounds that augment insulin secretion in Bmal1^−/− Beta TC-6 cells. Insulin Nanoluc-expressing Bmal1^−/− Beta TC-6 cells (30,000 cells/well) were placed into 384 well plates and cultured for 4 days at 37° C. and 5% CO2. The cells were washed once and starved in KRB buffer containing 0 mM glucose for 1 hr. After removing the KRB, KRB buffer containing 20 mM glucose in addition to the small molecules (10 uM) were added, and the cells were incubated for 1 hr. As a negative control, 16 wells received KRB buffer with only 20 mM glucose, which fails to elicit insulin secretion in Bmal1^−/− cells, and as a positive control, 16 wells received KRB buffer containing 20 mM glucose and 10 μM PMA, which is known to induce insulin secretion in both Bmal1^−/− mouse islets and Beta TC-6 cells. After 1 hr, the supernatant was collected and centrifuged at 500 g for 30 min. The supernatant was transferred into a fresh 384-well assay plate containing Nano-Glo Luciferase Assay Substrate (Promega), and luciferase intensity was measured by EnSpire Plate Reader (PerkinElmer) within 30 minutes.
Z scores for luciferase intensities produced by screened compounds were calculated from the following formula: z=(X−μ)/σ (where z is the Z score, X is the intensity of the compounds, μ is the intensity of negative control (20 mM glucose), and a is the standard deviation of negative control). A row-based correction factor was applied to all luciferase readings to adjust for logarithmic signal decay. […]

Experiment [5] concerns wild-type βTC-6 cells. The experiment is described as follows: Glucose-stimulated insulin secretion assay in Beta TC-6 cells (ELISA). In kind it is cell-based, mouse. Conditions: for effect on glucose-stimulated insulin secretion and calcium flux (validation of hits): hit compounds at 10 and 100 μM, 0 or 20 mM glucose. How it is done: Beta TC-6 cells (300,000 cells/well) were seeded into poly-L-lysine-coated 24 well plates and cultured for 48-72 hrs at 37° C. and 5% CO2. The cells were washed once and incubated in KRB buffer containing 0 mM glucose for 1 hr. Cells were then treated for 1 hr with KRB buffer containing 0 or 20 mM glucose in the presence of hit compounds (including ivermectin, alexidine, and tomatine at final concentrations of 10 and 100 μM) or an equivalent volume of DMSO as a vehicle control. Supernatants were then collected and centrifuged at 500G for 30 min and assayed for insulin content by ELISA (Crystal Chem Inc). Cell lysates were harvested in acid-ethanol solution (0.18M HCl in 70% Ethanol), sonicated, and solubilized overnight at 4° C. before assaying total insulin content by ELISA. For insulin secretion assays following prolonged ivermectin treatment, cells were first treated with 10 μm ivermectin for 24 hrs prior to the 1 hr incubation with 0 mM glucose KRB buffer.

Experiment [6] deals with Beta-TC6 cells. The experiment is described as follows: Intracellular calcium determination with Fura2-AM dye. In kind it is cell-based, mouse. Conditions: Fura2-AM ratiometric, 10 μM ionomycin. How it is done:
BetaTC-6 cells were plated at a density of 100,000 cells per well in black 96-well plates with clear bottoms and cultured overnight at 37° C. and 5% CO2. Islets were dispersed to single cells by incubating in 0.05% Trypsin-EDTA at 37° C. for 3 min and plated at a density of 100 islets per well in laminin-treated black 96-well plates with clear bottoms and cultured in complete media for 48 hours at 37° C. and 5% CO2. Cells were then washed with BSA-free KRB buffer with no glucose and loaded with 5 μM Fura-2 (Invitrogen) and 0.04% Pluronic F-127 (Invitrogen) for 30 min at 37° C. Following a wash with BSA-free KRB, Fura-2 intensity was measured after injection of either glucose or ionomycin (Sigma) to final concentrations of 20 mM or 10 μM, respectively. Cells were alternately excited with 340- and 380-nm light, and the emitted light was detected at 510 nm using a Cytation 3 Cell Imaging Multi-Mode Reader (Bio Tek) at sequential 30-s intervals. Raw fluorescence data were exported to Microsoft Excel and expressed as the 340/380 ratio for each well.
For orientation: Calcium assays in cells follow changes in intracellular calcium, usually with a dye or a luminescent sensor.

In experiment [7] the test system is wild-type βTC-6 cells. The experiment is described as follows: Calcium flux (Fura-2) after exposure to glucose and compound. The note with it: ivermectin 10 μM with glucose. In kind it is cell-based, mouse. How it is done: BetaTC-6 cells were plated at a density of 100,000 cells per well in black 96-well plates with clear bottoms and cultured overnight at 37° C. and 5% CO2. Cells were then washed with BSA-free KRB buffer with no glucose and loaded with 5 μM Fura-2 (Invitrogen) and 0.04% Pluronic F-127 (Invitrogen) for 30 min at 37° C. Following a wash with BSA-free KRB, Fura-2 intensity was measured following injection of either glucose alone or indicated compounds. Cells were alternately excited with 340 nm and 380 nm wavelength light, and the emitted light was detected at 510 nm using a Cytation 3 Cell Imaging Multi-Mode Reader (Bio Tek) at sequential 30-second intervals. Raw fluorescence data were exported to Microsoft Excel and expressed as the 340/380 ratio for each well.

Structures can show the parent of a compound that is named as a salt.

`Nc1ncnc2c1nc(Br)n2[C@@H]1O[C@@H]2COP(=O)(O)O[C@H]2[C@H]1O` [8-br-cAMP]: in experiment [1], the “insulin secretion in PdxCreER;Bmal1flx/flx islets in response to secretagogue” value is “secreted significantly less insulin than controls”.
In the case of `[Cl][Co][Cl]` [CoCl2, cobalt chloride], in experiment [2], the “expression of core clock genes” value is given as “increased expression of core clock genes”.
With `COC(=O)CNC(=O)C(=O)OC` [DMOG, dimethyloxalyl glycine], in experiment [3], the “period of PER2:LUC oscillations” value worked out at 23 h.
`CCCCCCCCCCCCCC(=O)O[C@@H]1[C@@H](C)[C@@]2(O)[C@@H](C=C(CO)C[C@]3(O)C(=O)C(C)=C[C@@H]23)[C@@H]2C(C)(C)[C@]12OC(C)=O` [PMA, phorbol 12-myristate 13-acetate]: the “insulin secretion in PdxCreER;Bmal1flx/flx islets in response to secretagogue” value in experiment [1] is “restored insulin secretion”. Also, the “glucose-dependent insulin secretion in the absence of BMAL1 (hit compound)” value (“glucose-dependent insulin secretion” below) in experiment [4] is reported as “rescues GSIS”.
Regarding `CCCCC(CC)CNC(=N)NC(=N)NCCCCCCNC(=N)NC(=N)NCC(CC)CCCC` (stereo not drawn) [alexidine hydrochlodire], the “glucose-dependent insulin secretion” value in experiment [4] was “stimulate glucose-dependent insulin secretion”. For the same molecule, the “effect on glucose-stimulated insulin secretion and calcium flux (validation of hits)” value in experiment [5] is “impact both glucose-stimulated insulin secretion and calcium flux”.
In the case of `C[N+](C)(C)CCOC(N)=O` [carbachol], in experiment [1], the “insulin secretion in PdxCreER;Bmal1flx/flx islets in response to secretagogue” value is reported as “restored insulin secretion”. Also, in experiment [4], the “glucose-dependent insulin secretion” value was “stimulate glucose-dependent insulin secretion”.
Turning to `C[C@H](CCC(=O)O)C[C@H](C)C[C@H](C)C(=O)/C=C(\O)[C@H](C)C[C@H](C)C/C=C/[C@@H](C)[C@@H](O)[C@@H](C)[C@@H](O)C[C@@H]1CC[C@@](C)([C@H]2CC[C@@](C)([C@@H](C)O)O2)O1` [ionomycin], the “insulin secretion in PdxCreER;Bmal1flx/flx islets in response to secretagogue” value in experiment [1] is recorded as “significantly reduced in mutants”. For the same molecule, in experiment [6], the “intracellular Ca2+” value is listed as “raised intracellular Ca2+”.
For `CNC1(C)C2CCC(C2)C1(C)C` (stereo not drawn) [mecamylamine hydrochloride], the “glucose-dependent insulin secretion” value in experiment [4] is recorded as “stimulate glucose-dependent insulin secretion”.
On to `C[C@H]1CC[C@]2(NC1)O[C@H]1C[C@H]3[C@@H]4CC[C@H]5C[C@@H](O[C@@H]6O[C@H](CO)[C@H](O[C@@H]7O[C@H](CO)[C@@H](O)[C@H](O[C@@H]8OC[C@@H](O)[C@H](O)[C@H]8O)[C@H]7O[C@@H]7O[C@H](CO)[C@@H](O)[C@H](O)[C@H]7O)[C@H](O)[C@H]6O)CC[C@]5(C)[C@H]4CC[C@]3(C)[C@H]1[C@@H]2C` [tomatine], for which the “glucose-dependent insulin secretion” value in experiment [4] was “stimulate glucose-dependent insulin secretion”. Besides, the “effect on glucose-stimulated insulin secretion and calcium flux (validation of hits)” value in experiment [5] is “impact both glucose-stimulated insulin secretion and calcium flux”.
For ivermectin, in experiment [4], the “glucose-dependent insulin secretion” value is “stimulate glucose-dependent insulin secretion”. Besides, the “glucose-stimulated insulin secretion in wild-type βTC-6 cells” value in experiment [5] (acute or prolonged exposure, presence or absence of glucose) is “enhances glucose-stimulated insulin secretion”. Besides, in experiment [5], the “effect on glucose-stimulated insulin secretion and calcium flux (validation of hits)” value was “impact both glucose-stimulated insulin secretion and calcium flux”. The “calcium flux in wild-type βTC-6 cells” value in experiment [7] is “enhances glucose-stimulated insulin secretion and calcium flux”.
